From ChEMBL document CHEMBL3804811 (J Med Chem, 2016)

Legend:
[1] = target: Vascular endothelial growth factor receptor 2 (Homo sapiens, UniProt P35968); assay: Inhibition of VEGFR2 (unknown origin) in presence of gamma33-ATP
[2] = Intrinsic clearance in rat hepatocytes at […] after 10 to 90 mins by LC-MS/MS analysis; type: ADME, cell-based, Hepatocyte; conditions: read-out: CLH
[3] = AUC (infinity) in Sprague-Dawley rat at 10 mg/kg, po administered as single dose by LC-MS/MS analysis; type: ADME, organism-based; design: dose 10 mg/kg, time infinity, route oral; conditions: in vivo
[4] = AUC (infinity) in Beagle dog at 10 mg/kg, po administered as single dose by LC-MS/MS analysis; type: ADME, organism-based, Canis lupus familiaris; design: dose 10 mg/kg, time infinity, route oral; conditions: in vivo
[5] = target: Tyrosine-protein kinase JAK2 (Homo sapiens, UniProt O60674); assay: Inhibition of JAK2 (unknown origin) in presence of gamma33-ATP
[6] = Cmax in Harlan nu/nu mouse at 10 mg/kg, iv administered as single dose by LC-MS/MS analysis; type: ADME, organism-based; design: dose 10 mg/kg, route intravenous; conditions: in vivo
[7] = target: T1, Tyrosine-protein kinase ZAP-70 (Homo sapiens, UniProt P43403); assay: Inhibition of ZAP70 (unknown origin) in presence of gamma33-ATP
T1 sequence (P43403 whole entry): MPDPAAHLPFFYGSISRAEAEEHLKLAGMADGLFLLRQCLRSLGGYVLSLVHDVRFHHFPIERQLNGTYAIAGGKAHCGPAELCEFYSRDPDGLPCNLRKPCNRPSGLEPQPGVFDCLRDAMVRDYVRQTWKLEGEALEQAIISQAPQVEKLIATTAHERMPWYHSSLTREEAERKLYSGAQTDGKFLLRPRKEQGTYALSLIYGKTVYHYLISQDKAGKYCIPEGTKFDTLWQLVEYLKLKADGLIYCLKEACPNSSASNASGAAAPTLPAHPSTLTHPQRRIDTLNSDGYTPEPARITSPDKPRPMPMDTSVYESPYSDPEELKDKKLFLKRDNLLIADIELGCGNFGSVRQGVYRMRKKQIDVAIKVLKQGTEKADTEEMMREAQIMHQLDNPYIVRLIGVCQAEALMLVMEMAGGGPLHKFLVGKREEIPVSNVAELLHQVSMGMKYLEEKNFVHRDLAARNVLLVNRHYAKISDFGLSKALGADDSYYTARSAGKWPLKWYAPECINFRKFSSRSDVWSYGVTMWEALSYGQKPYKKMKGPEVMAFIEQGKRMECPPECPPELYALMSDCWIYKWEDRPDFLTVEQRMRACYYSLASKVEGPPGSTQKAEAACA

[8] = target: T2, 3-phosphoinositide-dependent protein kinase 1 (Homo sapiens, UniProt O15530); assay: Inhibition of PDK1 (unknown origin) in presence of gamma33-ATP
T2 sequence (O15530 whole entry): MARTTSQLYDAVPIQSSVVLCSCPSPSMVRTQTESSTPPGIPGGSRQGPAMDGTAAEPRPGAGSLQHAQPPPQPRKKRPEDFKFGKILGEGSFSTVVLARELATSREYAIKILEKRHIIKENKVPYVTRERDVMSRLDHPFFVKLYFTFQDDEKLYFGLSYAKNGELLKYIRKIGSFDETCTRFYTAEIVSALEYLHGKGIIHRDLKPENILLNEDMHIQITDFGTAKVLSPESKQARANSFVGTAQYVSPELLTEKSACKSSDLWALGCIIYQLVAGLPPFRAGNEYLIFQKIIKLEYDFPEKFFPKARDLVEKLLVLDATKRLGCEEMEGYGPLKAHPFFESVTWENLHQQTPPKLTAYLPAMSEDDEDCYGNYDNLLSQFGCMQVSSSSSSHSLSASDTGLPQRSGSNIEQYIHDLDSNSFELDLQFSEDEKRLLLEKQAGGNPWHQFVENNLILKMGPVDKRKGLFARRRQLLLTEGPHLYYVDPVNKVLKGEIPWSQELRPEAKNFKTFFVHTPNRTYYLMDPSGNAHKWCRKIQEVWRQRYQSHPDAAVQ

[9] = target: T3, Eukaryotic translation initiation factor 2-alpha kinase 3 (Homo sapiens, UniProt Q9NZJ5); assay: Inhibition of PERK (unknown origin) in presence of gamma33-ATP
T3 sequence (Q9NZJ5 whole entry): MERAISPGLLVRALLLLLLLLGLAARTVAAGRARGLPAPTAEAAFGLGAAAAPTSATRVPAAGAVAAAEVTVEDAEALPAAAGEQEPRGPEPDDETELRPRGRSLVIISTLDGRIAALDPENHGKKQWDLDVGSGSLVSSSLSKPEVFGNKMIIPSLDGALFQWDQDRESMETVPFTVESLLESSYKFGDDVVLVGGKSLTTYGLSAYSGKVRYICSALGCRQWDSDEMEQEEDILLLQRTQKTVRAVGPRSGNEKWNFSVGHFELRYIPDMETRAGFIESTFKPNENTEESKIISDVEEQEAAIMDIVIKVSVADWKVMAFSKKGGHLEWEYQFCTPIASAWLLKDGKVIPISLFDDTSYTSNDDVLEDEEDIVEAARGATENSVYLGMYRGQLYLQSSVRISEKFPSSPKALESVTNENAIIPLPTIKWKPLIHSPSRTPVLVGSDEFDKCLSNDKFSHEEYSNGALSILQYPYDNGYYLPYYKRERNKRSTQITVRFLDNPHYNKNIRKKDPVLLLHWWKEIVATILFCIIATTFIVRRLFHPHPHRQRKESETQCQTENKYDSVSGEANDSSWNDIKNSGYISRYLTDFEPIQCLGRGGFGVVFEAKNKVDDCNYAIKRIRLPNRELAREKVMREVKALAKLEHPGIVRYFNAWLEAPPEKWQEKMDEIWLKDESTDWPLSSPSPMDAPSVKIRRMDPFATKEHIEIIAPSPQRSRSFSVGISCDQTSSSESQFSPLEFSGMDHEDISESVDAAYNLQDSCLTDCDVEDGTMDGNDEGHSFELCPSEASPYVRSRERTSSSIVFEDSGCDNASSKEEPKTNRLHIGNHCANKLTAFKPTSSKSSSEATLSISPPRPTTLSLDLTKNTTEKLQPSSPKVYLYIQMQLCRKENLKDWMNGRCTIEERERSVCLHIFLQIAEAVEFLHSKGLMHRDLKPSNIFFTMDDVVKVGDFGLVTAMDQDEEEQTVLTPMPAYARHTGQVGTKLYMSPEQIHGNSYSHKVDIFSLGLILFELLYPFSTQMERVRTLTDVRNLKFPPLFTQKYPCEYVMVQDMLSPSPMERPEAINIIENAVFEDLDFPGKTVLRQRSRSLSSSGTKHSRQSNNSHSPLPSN

[10] = Antiproliferative activity against human KARPAS299 cells incubated for 72 hrs by cell titer-glo assay; conditions: KARPAS-299, 72 h
[11] = AUC (infinity) in Harlan nu/nu mouse at 10 mg/kg, iv administered as single dose by LC-MS/MS analysis; type: ADME, organism-based; design: dose 10 mg/kg, time infinity, route intravenous; conditions: in vivo
[12] = Clearance in Sprague-Dawley rat at 10 mg/kg, iv administered as single dose by LC-MS/MS analysis; type: ADME, organism-based; conditions: in vivo

Vascular endothelial growth factor receptor 2, sequence (P35968 whole entry): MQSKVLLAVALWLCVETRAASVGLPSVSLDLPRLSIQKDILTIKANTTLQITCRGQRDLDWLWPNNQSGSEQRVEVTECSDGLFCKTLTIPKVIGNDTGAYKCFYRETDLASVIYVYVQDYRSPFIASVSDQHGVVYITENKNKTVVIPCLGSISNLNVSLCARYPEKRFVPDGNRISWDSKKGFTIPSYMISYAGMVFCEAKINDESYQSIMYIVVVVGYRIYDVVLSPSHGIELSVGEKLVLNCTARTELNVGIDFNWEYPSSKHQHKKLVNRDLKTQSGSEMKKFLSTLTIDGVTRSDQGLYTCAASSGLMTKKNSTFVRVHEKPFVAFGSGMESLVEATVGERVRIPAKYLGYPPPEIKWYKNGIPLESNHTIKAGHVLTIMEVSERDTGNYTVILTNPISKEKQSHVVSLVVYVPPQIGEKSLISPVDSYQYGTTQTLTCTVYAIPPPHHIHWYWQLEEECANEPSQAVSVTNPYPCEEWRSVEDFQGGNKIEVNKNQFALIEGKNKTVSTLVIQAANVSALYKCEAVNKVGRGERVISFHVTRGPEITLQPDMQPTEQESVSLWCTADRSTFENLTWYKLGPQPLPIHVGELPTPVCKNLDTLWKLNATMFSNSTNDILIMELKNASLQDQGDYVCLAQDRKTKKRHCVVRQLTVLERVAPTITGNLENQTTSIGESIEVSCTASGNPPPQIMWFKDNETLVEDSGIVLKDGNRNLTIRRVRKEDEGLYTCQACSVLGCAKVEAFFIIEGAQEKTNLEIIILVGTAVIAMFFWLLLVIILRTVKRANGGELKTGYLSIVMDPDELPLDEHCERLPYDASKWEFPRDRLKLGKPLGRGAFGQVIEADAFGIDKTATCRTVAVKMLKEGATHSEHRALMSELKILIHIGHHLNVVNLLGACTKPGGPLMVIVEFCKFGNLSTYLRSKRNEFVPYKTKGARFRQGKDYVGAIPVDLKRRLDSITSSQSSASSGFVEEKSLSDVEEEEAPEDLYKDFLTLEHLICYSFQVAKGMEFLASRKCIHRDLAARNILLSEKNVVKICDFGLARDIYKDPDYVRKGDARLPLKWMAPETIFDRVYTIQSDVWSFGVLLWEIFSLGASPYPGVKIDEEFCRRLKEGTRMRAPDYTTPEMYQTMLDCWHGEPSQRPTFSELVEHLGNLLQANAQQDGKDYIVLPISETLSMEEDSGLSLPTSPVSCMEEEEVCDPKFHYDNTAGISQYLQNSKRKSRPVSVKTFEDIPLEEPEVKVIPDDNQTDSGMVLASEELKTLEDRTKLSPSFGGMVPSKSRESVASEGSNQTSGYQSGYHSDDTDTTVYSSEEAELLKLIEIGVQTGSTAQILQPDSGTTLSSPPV
Tyrosine-protein kinase JAK2, sequence (O60674 whole entry): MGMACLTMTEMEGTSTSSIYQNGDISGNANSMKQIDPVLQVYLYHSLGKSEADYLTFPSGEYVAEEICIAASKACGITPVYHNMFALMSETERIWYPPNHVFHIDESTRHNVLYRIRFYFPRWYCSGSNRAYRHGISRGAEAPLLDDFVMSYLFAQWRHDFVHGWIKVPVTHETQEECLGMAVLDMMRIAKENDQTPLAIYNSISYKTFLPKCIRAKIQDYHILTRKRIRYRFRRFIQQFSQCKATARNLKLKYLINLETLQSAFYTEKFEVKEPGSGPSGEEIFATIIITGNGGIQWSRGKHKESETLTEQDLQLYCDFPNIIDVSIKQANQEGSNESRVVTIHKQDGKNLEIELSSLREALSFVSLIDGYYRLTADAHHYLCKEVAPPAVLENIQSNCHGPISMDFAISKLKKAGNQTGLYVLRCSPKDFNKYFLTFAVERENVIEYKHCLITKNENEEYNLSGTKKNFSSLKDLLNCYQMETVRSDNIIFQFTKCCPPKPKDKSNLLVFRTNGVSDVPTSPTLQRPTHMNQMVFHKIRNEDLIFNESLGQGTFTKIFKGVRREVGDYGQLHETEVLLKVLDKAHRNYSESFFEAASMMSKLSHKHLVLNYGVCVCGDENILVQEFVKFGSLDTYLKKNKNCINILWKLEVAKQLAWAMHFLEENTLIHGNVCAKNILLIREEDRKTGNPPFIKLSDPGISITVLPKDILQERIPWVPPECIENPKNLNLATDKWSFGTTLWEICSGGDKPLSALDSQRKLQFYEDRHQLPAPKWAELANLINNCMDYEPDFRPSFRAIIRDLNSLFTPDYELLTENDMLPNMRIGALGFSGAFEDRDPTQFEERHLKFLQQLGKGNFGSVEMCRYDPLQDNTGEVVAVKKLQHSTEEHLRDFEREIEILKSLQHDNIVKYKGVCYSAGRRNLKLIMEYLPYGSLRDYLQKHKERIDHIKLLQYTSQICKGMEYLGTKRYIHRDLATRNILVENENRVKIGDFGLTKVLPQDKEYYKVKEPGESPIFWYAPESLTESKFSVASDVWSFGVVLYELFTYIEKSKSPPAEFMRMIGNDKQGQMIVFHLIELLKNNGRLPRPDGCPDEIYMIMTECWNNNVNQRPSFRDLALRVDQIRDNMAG

In the case of `CN1CCN(c2ccc(C(=O)Nc3n[nH]c4ccc(Cc5cc(F)cc(F)c5)cc34)c(NC3CCOCC3)c2)CC1` [ENTRECTINIB], the IC50 [1] is reported as greater than 1000 nM, the CLint scaled [2] is reported as 87 mL/min/kg and the AUC(0-inf) [3] is reported as 5.13 µM·h. It also gave an AUC(0-inf) [4] of 5.7 µM·h, an IC50 [5] of 40 nM and a Cmax [6] of 4.9 µM. It also gave an IC50 [7] greater than 10000 nM, an IC50 [8] greater than 10000 nM and an IC50 [9] greater than 10000 nM. For the same compound, the IC50 [10] was 31 nM, the AUC(0-inf) [11] was 19.6 µM·h and the clearance [12] was 20.8 mL/min/kg.
